Laboratory results taken from patent US20260355097A1, “MICROBIOME FRIENDLY SUBSTANCES AND MICROBIOME FRIENDLY COSMETIC FORMULATIONS” (BASF SE, priority 2023, published 2026).
Structures can show the parent of a compound that is named as a salt.

System: Staphylococcus aureus, Staphylococcus epidermidis, Malassezia furfur
Experiment: Lowest MIC over the microorganisms tested
Assay type: cell-based
Conditions: lowest MIC value obtained over the tested microorganisms
Procedure: Minimal Inhibitory Concentration tests are tests typically used to measure growth inhibition by a substance. MICs are defined as the lowest test concentrations of the test substance at which growth of specific microorganisms are inhibited.
In the present case predefined dilutions of the test substance in the appropriate culture medium were prepared and inoculated with the microorganism of interest. After incubation, the test organisms were cultured over a time-period and under conditions normally allowing growth of the microorganism. Vehicle controls (vehicle=solvent used, e. g. water) were also assessed to determine growth without the test substance. The organisms of interest tested were the representative strains S. aureus (found on the skin, often a pathogen), S. epidermidis and Malassezia furfur. The higher the MIC value, the less inhibition of growth is observed. In the following results the test concentrations are given as percent of active substance content.
For each substance the lowest MIC value obtained determines whether this substance in useful as microbiome friendly cosmetic ingredient. A substance is useful as microbiome friendly cosmetic ingredient, if this lowest MIC is not lower than a threshold value. This threshold value depends on the type of the substance (solubilizer, emulsifier etc.) and is related to the amount in which these types of substances are generally used in common cosmetic formulations.

Compound	lowest MIC [% by weight]
OCCCCO [1.4 Butandiol, 1,4 Butandiol]	>1
CC(O)CCO (stereo not drawn) [Butylene Glycol, 1,3-Butanediol]	20.00
OCC(O)CO [Glycerin]	20.00
CCCCCCCC/C=C\CCCCCCCC(=O)OCC(O)CO (stereo not drawn) [Glyceryl Oleate]	>2
CCCCCCCCCCCCCCCCCC(=O)OCC(O)CO.O=C(O)CC(O)(CC(=O)O)C(=O)O (stereo not drawn) [Glyceryl Stearate Citrate]	>3
CCCCCCCCCCCCCCCCOP(=O)([O-])[O-].[K+].[K+] [Potassium Cetyl Phosphate]	1.00
O=C(O)c1ccccc1 [Sodium Benzoate]	0.25
CCOC(=O)CC(O)(CC(=O)OCC)C(=O)OCC [Triethyl Citrate]	1
CCCCC/C=C\C/C=C\CCCCCCCC(=O)OCC [ethyl linoleate]	>1
Conjugated Linoleic Acid	>1
Disodium Cetearyl Sulfosuccinate	0.05
Sodium Cetearyl Sulfate	0.08
